Assays:
Caco-2 cells = test: in vitro
Protocol: (§1) Caco-2 cells purchased from ATCC were seeded onto […] (PET) in 96-well BD Insert plates at 1×10^5 cells/cm^2, and refreshed medium every 4-5 days until to the 21st to 28th day for confluent cell monolayer formation. The transport buffer in the study was HBSS with 10 mM HEPES at pH 7.40±0.05. Test compounds were tested at 2 μM bi-directionally in duplicate. Digoxin was tested at 10 μM bi-directionally in duplicate, while nadolol and metoprolol were tested at 2 μM in A to B direction in duplicate. Final DMSO concentration was adjusted to less than 1%.
(§2) The plate was incubated for 2 hours in CO2 incubator at 37±1° C., with 5% CO2 at saturated humidity without shaking. All samples were mixed with acetonitrile containing internal standard and were centrifuged at 4000 rpm for 10 min. Subsequently, 100 μL supernatant solution was diluted with 100 μL distilled water for LC/MS/MS analysis. Concentrations of test and control compounds in starting solution, donor solution, and receiver solution were quantified by LC/MS/MS, using peak area ratio of analyte/internal standard.

[1] = test system: Chemotherapy-induced Intestinal Injury Model; test: Diarrhea in mouse chemotherapy-induced (5FU) intestinal injury model; format: in vivo, BALB/c mice; settings: 5FU 400 mg/kg IP; for Diarrhea Score Day 5 / Diarrhea Score Day 6: score 0-3
Protocol: Compounds were formulated in vehicle (0.25% methyl cellulose, 5% Tween 80, 0.02% sodium dodecyl sulfate (SDS) in Hanks' Buffered Salt Solution with Ca' and Mg'). On day 1, either saline or a 400 mg/kg dose of 5-fluorouracil (5FU) in saline was administered by intraperitoneal injection to BALB/c mice. Starting on day 2, vehicle or compound was administered twice a day by oral gavage. From days 5 to 6 post-5FU, the animals were scored for diarrhea severity once a day. The diarrhea was scored 0-3 as follows: 0—normal consistency (black and solid), 1—soft (black and a bit lighter/yellow), 2—loosely shaped stool (yellowish and somewhat watery), 3—extreme diarrhea (very watery).

[2] = Pharmacokinetics (oral bioavailability) in C57BL/6 mice; settings: mouse, in vivo; for bioavailability: IV 1 mg/kg, PO 30 mg/kg; for Vd: following IV administration, 1 mg/kg, read-out: volume of distribution
Protocol: Selected compounds were tested for pharmacokinetics in C57BL/6 mice. Compounds 1, 4, 31, 32, 40, 55, 57 and 60 were dosed IV at 1 mg/kg as a formulation of 0.2 mg/mL in 5% DMSO+30% PEG400+65% water and were dosed PO at 30 mg/kg as a formulation of 3 mg/mL in 0.25% MC+5% Tween 80+0.02% SDS. Compound 2 was dosed IV at 1 mg/kg as a formulation of 0.2 mg/mL in 5% ethanol +95% saline and was dosed PO at 30 mg/kg as a formulation of 3 mg/mL in 0.25% MC+5% Tween 80+0.02% SDS.

[3] = test system: Acute Dextran Sulfate Sodium (DSS) Colitis Model; test: Intestinal barrier function in mouse acute DSS colitis model (FITC-dextran); format: in vivo, C57B1/6 mice; settings: 30 mg/kg QD oral; 3% DSS 7 days; serum FITC-dextran
Protocol: Compounds were formulated in vehicle (0.25% methyl cellulose, 5% Tween 80, 0.02% sodium dodecyl sulfate (SDS) in Hanks' Buffered Salt Solution with Ca^2+ and Mg^2+). Vehicle or compound was administered once daily by oral gavage to C57B1/6 mice. After 3 days of pre-dosing, dextran sulfate sodium (DSS) was simultaneously administered at 3% in drinking water, and appropriate water-only controls were included.
After 7 days of DSS administration, animals treated were switched back to their regular water source and administered a single oral bolus dose of FITC-dextran (FD) four hours prior to necropsy. The animals were sacrificed by cardiac puncture and serum was collected. The concentration of […] present in serum was determined by measuring fluorescence intensity on a standard plate reader, and fitting values back to a standard curve.

in vitro = settings: human; for Papp A→B at 2 h, 2 μM / Papp B→A at 2 h, 2 μM: Caco-2, pH 7.4; for efflux ratio at 2 h, 2 μM: Caco-2, pH 7.4, Efflux Ratio
Protocol: as §1, §2

[4] = target: Recombinant AMPK α1/β1/γ1 complex (Homo sapiens (Human), UniProt Q13131+Q9Y478); test: In vitro pAMPK1 kinase activation assay (ADP-Glo, SAMS peptide); format: biochemical; settings: AMPK α1/β1/γ1 pre-activated with CAMKK2; 12-point curve; 15 min compound incubation
Recombinant AMPK α1/β1/γ1 complex, sequence (Q13131 whole entry): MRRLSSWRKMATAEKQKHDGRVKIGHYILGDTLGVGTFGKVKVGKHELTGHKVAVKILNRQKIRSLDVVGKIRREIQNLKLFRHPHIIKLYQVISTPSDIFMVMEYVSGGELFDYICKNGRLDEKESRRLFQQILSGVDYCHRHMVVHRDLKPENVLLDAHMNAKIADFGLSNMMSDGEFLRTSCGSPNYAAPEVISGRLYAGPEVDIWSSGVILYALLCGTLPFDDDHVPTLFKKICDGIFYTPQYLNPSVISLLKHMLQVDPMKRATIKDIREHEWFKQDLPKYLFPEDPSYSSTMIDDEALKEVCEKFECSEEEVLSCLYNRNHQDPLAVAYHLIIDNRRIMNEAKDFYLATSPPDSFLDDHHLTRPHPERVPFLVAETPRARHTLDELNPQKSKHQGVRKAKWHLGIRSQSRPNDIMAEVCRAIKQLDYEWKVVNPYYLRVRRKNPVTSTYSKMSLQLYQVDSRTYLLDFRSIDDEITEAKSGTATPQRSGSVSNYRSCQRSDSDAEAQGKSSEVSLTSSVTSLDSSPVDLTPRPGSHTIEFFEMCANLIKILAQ
Recombinant AMPK α1/β1/γ1 complex, sequence (Q9Y478 whole entry): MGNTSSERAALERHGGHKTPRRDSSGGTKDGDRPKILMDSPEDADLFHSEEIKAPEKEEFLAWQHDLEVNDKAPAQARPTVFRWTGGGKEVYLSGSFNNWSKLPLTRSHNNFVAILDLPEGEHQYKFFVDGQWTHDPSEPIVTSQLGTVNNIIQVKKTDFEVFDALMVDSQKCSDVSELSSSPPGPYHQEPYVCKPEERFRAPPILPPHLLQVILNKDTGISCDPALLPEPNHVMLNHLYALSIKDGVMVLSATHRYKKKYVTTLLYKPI
Recombinant AMPK α1/β1/γ1 complex, sequence (P54619 whole entry partner): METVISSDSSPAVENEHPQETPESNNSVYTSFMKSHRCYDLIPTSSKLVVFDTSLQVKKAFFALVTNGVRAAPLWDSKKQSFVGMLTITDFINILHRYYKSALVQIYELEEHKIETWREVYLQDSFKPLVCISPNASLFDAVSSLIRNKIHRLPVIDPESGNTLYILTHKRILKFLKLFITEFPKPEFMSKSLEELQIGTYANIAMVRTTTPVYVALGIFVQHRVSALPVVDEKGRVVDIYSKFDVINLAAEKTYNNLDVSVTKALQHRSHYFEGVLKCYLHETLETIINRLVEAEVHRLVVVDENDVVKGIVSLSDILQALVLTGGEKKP
Summary of the method: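 CAMKK2-pre-activated α1/β1/γ1 complex incubated 15 minutes with compound, then SAMS peptide phosphorylation measured cell-free by ADP-Glo. 12-point concentration curves; EC50 fitted by interpolation to an ATP:ADP standard curve.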

blood glucose levels = test: Intraperitoneal (IP) glucose tolerance test in mice; format: in vivo; settings: for % Change in Average Total AUC (0-90 min) vs. Vehicle: blood glucose, glucose 2 g/kg IP; for change in blood glucose AUC vs. vehicle / systemic AMPK activation (in words): 30 mpk for all compounds, up to 100 mpk for Compound 4
From the text: Systemic AMPK target engagement in vivo can be assessed by measuring the glucose levels in blood following administration of compounds, whereby AMPK activation in skeletal muscle leads in a decrease in overall blood glucose levels.
Compounds were formulated in vehicle (0.25% methyl cellulose, 5% Tween 80, 0.02% sodium dodecyl sulfate (SDS) in Hanks' Buffered Salt Solution with Ca^2+ and Mg^2). Immediately prior to compound dosing, the tip of the tail was removed with scissors and a drop of blood was collected onto a glucometer strip (Bayer Contour Next) for a −1 hour blood glucose measure. The mice were then immediately administered vehicle or compound at 10 mL/kg PO. Approximately one hour later, mice were tail bled for a 0 min blood glucose reading, and then immediately after were administered D(+) glucose (2 g/kg, made up in saline) at 5 mL/kg IP. Tail bleeds were then performed on all mice at 20 min, 40 min, 60 min, and 90 min post D(+) glucose administration for blood glucose measures. Area under the curves (AUCs) for blood glucose measures were then calculated for each treatment from 0-90 mins.

[5] = test system: Madin-Darby Canine Kidney (MDCK) cells; test: In vitro MDCK epithelial permeability assay (calcium switch, FITC-dextran); format: cell-based; settings: low calcium medium, MDCK monolayers
From the text: In order to quantitatively measure the effects of transporter substrate AMPK activators on epithelial permeability in vitro, standard calcium switch protocols from the literature were adapted for use with Madin-Darby Canine Kidney (MDCK) cells grown on Corning Transwell inserts for use with fluorescein isothiocyanate-dextran, average molecular weight 4 kDa (FITC-dextran). FITC-dextran is a large, metabolically inert sugar molecule that is not readily transferrable across healthy epithelial barriers in vitro or in vivo. This compound has been tagged with a fluorophore to easily track its movement.
Briefly, MDCK cells were seeded onto Transwell inserts and grown according to manufacturer instructions until confluent. On the day of the experiment, a baseline reading was taken in standard growth media in which FITC-dextran was spiked into the apical chamber and the percent permeation of FITC-dextran from the apical to the basolateral chamber was measured. The inserts were then washed in low calcium medium (LCM) containing either vehicle or compound to remove residual FITC-dextran and calcium, and FITC-dextran was once again spiked into the apical chamber and the percent permeation in LCM was measured. […] The fold induction of FITC-dextran permeation to the basolateral chamber when each well was transferred from baseline growth media to LCM was then calculated.

[6] = Caco-2, pH 7.4, Mean Recovery A to B
[7] = Caco-2, pH 7.4, Mean Recovery B to A

| Compound | half-life [2] | bioavailability [2] | Vd [2] | Papp A→B at 2 h, 2 μM (in vitro) | Papp B→A at 2 h, 2 μM (in vitro) | recovery at 2 h, 2 μM (in vitro; [6]) | recovery at 2 h, 2 μM (in vitro; [7]) | permeability (in words) (Caco-2 cells; Caco-2) | EC50 [4] | efflux ratio at 2 h, 2 μM (in vitro) | Change in Fluorescence Intensity vs. Vehicle [3] | % Change in Average Total AUC (0-90 min) vs. Vehicle (blood glucose levels; 30 mpk PO) | change in blood glucose AUC vs. vehicle / systemic AMPK activation (in words) (blood glucose levels) | further results |
| --- | --- | --- | --- | --- | --- | --- | --- | --- | --- | --- | --- | --- | --- | --- |
| CC(C)(C)NCC(O)COc1cccc2c1CC(O)C(O)C2 (stereo not drawn) [Nadolol, nadolol, reference compound] | – | – | – | – | – | – | – | – | – | – | – | – | – | Mean Recovery A to B (Caco-2 cells; Caco-2): 97.74%; Mean Papp A to B (Caco-2 cells; Caco-2, pH 7.4): 0.08 10^−6 cm/s |
| O=C(NCCOCCO)c1ccc(-c2ccc(-c3cc4nc(O[C@@H]5CO[C@H]6[C@@H]5OC[C@H]6O)[nH]c4cc3Cl)cc2)cc1 [Compound 31, 4′-(6-chloro-2-(((3R,3aR,6R,6aR)-6-hydroxyhexahydrofuro[3,2-b]furan-3-yl)oxy)-1H-benzo[d]imidazol-5-yl)-N-(2-(2-hydroxyethoxy)ethyl)-[1,1′-biphenyl]-4-carboxamide] | 1.7 h | < 10% | < 5 L/kg | 0.115 ×10⁻⁶ cm/s | 31.7 ×10⁻⁶ cm/s | 83.2% | 97.8% | low permeability | 0.85 nM | – | −41% | – | – | Diarrhea Score Day 5, % Change vs. Vehicle ([1]; 30 mpk BID oral): −67%; Diarrhea Score Day 6, % Change vs. Vehicle ([1]; 30 mpk BID oral): −61%; Diarrhea Score Day 5 ([1]; 30 mpk BID oral): 0.43; Diarrhea Score Day 6 ([1]; 30 mpk BID oral): 0.63 |
| O=P(O)(O)c1ccc(-c2ccc(-c3nc4nc(O[C@@H]5CO[C@H]6[C@@H]5OC[C@H]6O)[nH]c4cc3Cl)cc2)cc1 [Compound 2, (4′-(6-chloro-2-(((3R,3aR,6R,6aR)-6-hydroxyhexahydrofuro[3,2-b]furan-3-yl)oxy)-1H-imidazo[4,5-b]pyridin-5-yl)-[1,1′-biphenyl]-4-yl)phosphonic acid] | – | < 1% | < 5 L/kg | – | – | – | – | – | 1.4 nM | – | – | +6.6% | do not lead to activation of AMPK in skeletal muscle | – |

Now from value to compound, other results behind:

| half-life [2] | bioavailability [2] | Vd [2] | Papp A→B at 2 h, 2 μM (in vitro) | Papp B→A at 2 h, 2 μM (in vitro) | recovery at 2 h, 2 μM (in vitro; [6]) | recovery at 2 h, 2 μM (in vitro; [7]) | permeability (in words) (Caco-2 cells; Caco-2) | EC50 [4] | efflux ratio at 2 h, 2 μM (in vitro) | Compound | Change in Fluorescence Intensity vs. Vehicle [3] | % Change in Average Total AUC (0-90 min) vs. Vehicle (blood glucose levels; 30 mpk PO) | change in blood glucose AUC vs. vehicle / systemic AMPK activation (in words) (blood glucose levels) | further results |
| --- | --- | --- | --- | --- | --- | --- | --- | --- | --- | --- | --- | --- | --- | --- |
| 1.4 h | < 1% | < 1 L/kg | < 0.48 ×10⁻⁶ cm/s | 0.71 ×10⁻⁶ cm/s | < 99.6% | 102% | low permeability | 0.1 nM | > 1.48 | OC[C@@H](O)[C@@H](O)[C@H](O)[C@@H](O)CNCc1ccc(-c2ccc(-c3nc4nc(O[C@@H]5CO[C@H]6[C@@H]5OC[C@H]6O)[nH]c4cc3Cl)cc2)cc1 [Compound 4, (2R,3R,4R,5S)-6-(((4′-(6-chloro-2-(((3R,3aR,6R,6aR)-6-hydroxyhexahydrofuro[3,2-b]furan-3-yl)oxy)-1H-imidazo[4,5-b]pyridin-5-yl)-[1,1′-biphenyl]-4-yl)methyl)amino)hexane-1,2,3,4,5-pentaol] | −43% | −0.9% | do not lead to activation of AMPK in skeletal muscle | Diarrhea Score Day 5, % Change vs. Vehicle ([1]; 3 mpk BID oral): −16%; Diarrhea Score Day 6, % Change vs. Vehicle ([1]; 3 mpk BID oral): −44%; Diarrhea Score Day 5 ([1]; 3 mpk BID oral): 0.75; Diarrhea Score Day 6 ([1]; 3 mpk BID oral): 1.00; Diarrhea Score Day 5, % Change vs. Vehicle ([1]; 10 mpk BID oral): −72%; Diarrhea Score Day 6, % Change vs. Vehicle ([1]; 10 mpk BID oral): −79%; Diarrhea Score Day 5 ([1]; 10 mpk BID oral): 0.25; Diarrhea Score Day 6 ([1]; 10 mpk BID oral): 0.38; % Change in Average Total AUC (0-90 min) vs. Vehicle (blood glucose levels; 100 mpk PO): +2.3% |
| – | < 1% | < 5 L/kg | < 0.25 ×10⁻⁶ cm/s | 0.73 ×10⁻⁶ cm/s | < 82.6% | 89.9% | low permeability | 0.05 nM | > 2 | O=C(NC[C@H](O)[C@@H](O)[C@H](O)[C@H](O)CO)c1ccc(-c2ccc(-c3nc4nc(O[C@@H]5CO[C@H]6[C@@H]5OC[C@H]6O)[nH]c4cc3Cl)cc2)cc1 [Compound 1, 4′-(6-chloro-2-(((3R,3aR,6R,6aR)-6-hydroxyhexahydrofuro[3,2-b]furan-3-yl)oxy)-1H-imidazo [4,5-b]pyridin-5-yl)-N-((2S,3R,4R,5R)-2,3,4,5,6-pentahydroxyhexyl)-[1,1′-biphenyl]-4-carboxamide] | – | −7.5% | do not lead to activation of AMPK in skeletal muscle | Efflux Ratio (Caco-2 cells; human, Caco-2, 2 h, 2 μM, pH 7.4): >2.90; reduction of FITC-dextran permeation relative to vehicle ([5]; 0.1 μM): 33%; reduction of FITC-dextran permeation relative to vehicle ([5]; 10 μM): 35% |
